Measured values from patent US20250282768A1 (Janssen Pharmaceutica NV, priority 2022, published 2025).

Test system: p-IKKa levels in L363 (NIK translocated multiple myeloma) cells
Test: Assay 2: Effect of compounds on p-IKKa levels in L363 (NIK translocated multiple myeloma) cells
Assay type: cell-based
Settings: Homo sapiens, L-363, 6 h, read-out: Assay 2 IC50 (nM), p-IKKa (Ser 176/180) in BAFF stimulated L363 cells with MG132, 6 h; average if tested more than once
Method in brief: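 L363 cells incubated overnight ± 250 ng/ml BAFF, then 6 h at 37 °C with compound (0.3% DMSO) ± 10 μM MG132. Lysates assayed for p-IKKa (Ser176/180) by AlphaLISA SureFire. IC50 from sigmoidal fit of % inhibition normalized to BAFF/MG132-stimulated and unstimulated controls.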

CN1CC[C@@](O)(c2cc(-c3cccc(-c4ccnc(Nc5cc(OC(F)F)n(C)n5)n4)c3)no2)C1=O [Example 412, (R)-3-(3-(3-(2-((5-(Difluoromethoxy)-1-methyl-1H-pyrazol-3-yl)amino)pyrimidin-4-yl)phenyl)isoxazol-5-yl)-3-hydroxy-1-methylpyrrolidin-2-one] gave an IC50 of 50 to 500 nM.

For CN1CC[C@@](O)(c2ncc(-c3cccc(-c4ccnc(Nc5ccn(C)n5)n4)n3)s2)C1=O (single isomer, unassigned) [Example 82], the IC50 was > 500 nM.

With Cc1ncnn1-c1ccc(Nc2nccc(-c3cccc(-c4cc([C@]5(O)CCN(C)C5=O)on4)n3)n2)nc1 [Example 131, (R)-3-Hydroxy-1-methyl-3-(3-(6-(2-((5-(5-methyl-1H-1,2,4-triazol-1-yl)pyridin-2-yl)amino)pyrimidin-4-yl)pyridin-2-yl)isoxazol-5-yl)pyrrolidin-2-one] the IC50 was 50 to 500 nM.

In the case of CN1CC[C@@](O)(c2cc(-c3cccc(-c4ccnc(Nc5cnn(C)c5)n4)n3)no2)C1=O [Example 52, (R)-3-Hydroxy-1-methyl-3-(3-(6-(2-((1-methyl-1H-pyrazol-4-yl)amino)pyrimidin-4-yl)pyridin-2-yl)isoxazol-5-yl)pyrrolidin-2-one], the IC50 is reported as < 50 nM.

COCc1cc(Nc2nccc(-c3cccc(-c4cc([C@]5(O)CCN(C)C5=O)on4)n3)n2)nn1C [Example 475, (R)-3-Hydroxy-3-(3-(6-(2-((5-(methoxymethyl)-1-methyl-1H-pyrazol-3-yl)amino)pyrimidin-4-yl)pyridin-2-yl)isoxazol-5-yl)-1-methylpyrrolidin-2-one] was tested, and the IC50 was < 50 nM.

In the case of CN1CC[C@@](O)(c2cc(-c3cccc(-c4ccnc(-n5ccc(N)n5)n4)n3)no2)C1=O [Example 32, (R)-3-(3-(6-(2-(3-Amino-1H-pyrazol-1-yl)pyrimidin-4-yl)pyridin-2-yl)isoxazol-5-yl)-3-hydroxy-1-methylpyrrolidin-2-one], the IC50 is reported as > 500 nM.

With CN1CC[C@@](O)(c2cc(-c3cc(C(F)(F)F)cc(-c4ccnc(Nc5cnn(C)c5)n4)n3)no2)C1=O [Example 4, (R)-3-Hydroxy-1-methyl-3-(3-(6-(2-((1-methyl-1H-pyrazol-4-yl)amino)pyrimidin-4-yl)-4-(trifluoromethyl)pyridin-2-yl)isoxazol-5-yl)pyrrolidin-2-one] the IC50 was < 50 nM.

With CN1CC(F)(F)[C@@](O)(c2cc(-c3cccc(-c4ccnc(Nc5cnn6c5COCC6)n4)n3)no2)C1=O [Example 110, (R)-3-(3-(6-(2-((6,7-Dihydro-4H-pyrazolo[5,1-c][1,4]oxazin-3-yl)amino)pyrimidin-4-yl)pyridin-2-yl)isoxazol-5-yl)-4,4-difluoro-3-hydroxy-1-methylpyrrolidin-2-one] the IC50 was < 50 nM.

In the case of CNC(=O)c1cc(Nc2nccc(-c3cccc(-c4cc([C@]5(O)CCN(C)C5=O)on4)n3)n2)nn1C(C)C [Example 464, (R)-3-((4-(6-(5-(3-Hydroxy-1-methyl-2-oxopyrrolidin-3-yl)isoxazol-3-yl)pyridin-2-yl)pyrimidin-2-yl)amino)-1-isopropyl-N-methyl-1H-pyrazole-5-carboxamide], the IC50 is reported as < 50 nM.

Compound Cc1cnc(C(C)Nc2nccc(-c3cccc(-c4cc([C@]5(O)CCN(C)C5=O)on4)n3)n2)o1 (stereo partly drawn) [Example 381, (3R)-3-Hydroxy-1-methyl-3-(3-(6-(2-((1-(5-methyloxazol-2-yl)ethyl)amino)pyrimidin-4-yl)pyridin-2-yl)isoxazol-5-yl)pyrrolidin-2-one] has an IC50 of 50 to 500 nM.

In the case of Cc1cccnc1[C@H](C)Nc1nccc(-c2cccc(-c3cc([C@]4(O)CCN(C)C4=O)on3)n2)n1 (single isomer, unassigned) [Example 157], the IC50 is reported as > 500 nM.

CN1CC[C@@](O)(c2cc(-c3cccc(-c4ccnc(Nc5ccn(C)n5)n4)n3)n(C)n2)C1=O (single isomer, unassigned) [Example 166, (*R)-3-Hydroxy-1-methyl-3-(1-methyl-5-(6-(2-((1-methyl-1H-pyrazol-3-yl)amino)pyrimidin-4-yl)pyridin-2-yl)-1H-pyrazol-3-yl)pyrrolidin-2-one] was tested, and the IC50 was > 500 nM.

In the case of [2H]c1cc(-c2cccc(-n3cc([C@]4(O)CCN(C)C4=O)nn3)n2)nc(Nc2ccn(C)n2)n1 [Example 193, (R)-3-Hydroxy-1-methyl-3-(1-(6-(2-((1-methyl-1H-pyrazol-3-yl)amino)pyrimidin-4-yl-6-d)pyridin-2-yl)-1H-1,2,3-triazol-4-yl)pyrrolidin-2-one], the IC50 is reported as < 50 nM.

For CN1CC[C@@](O)(c2cc(-c3cccc(-c4ccnc(Nc5cnn6c5NCCC6)n4)c3)no2)C1=O [Example 20, (R)-3-Hydroxy-1-methyl-3-(3-(3-(2-((4,5,6,7-tetrahydropyrazolo[1,5-a]pyrimidin-3-yl)amino)pyrimidin-4-yl)phenyl)isoxazol-5-yl)pyrrolidin-2-one], the IC50 was > 500 nM.

COc1cccc(Nc2nccc(-c3cccc(-c4cc([C@]5(O)CCN(C)C5=O)on4)n3)n2)n1 [Example 322, (R)-3-Hydroxy-3-(3-(6-(2-((6-methoxypyridin-2-yl)amino)pyrimidin-4-yl)pyridin-2-yl)isoxazol-5-yl)-1-methylpyrrolidin-2-one] was tested, and the IC50 was 50 to 500 nM.

Compound CN1CC[C@@](O)(c2cnn(-c3cccc(-c4ccnc(Nc5cnn6ccccc56)n4)n3)c2)C1=O [Example 98, (R)-3-Hydroxy-1-methyl-3-(1-(6-(2-(pyrazolo[1,5-a]pyridin-3-ylamino)pyrimidin-4-yl)pyridin-2-yl)-1H-pyrazol-4-yl)pyrrolidin-2-one] has an IC50 of 50 to 500 nM.

Work on COCc1cc(-c2ccnc(Nc3cnn(C)c3)n2)nc(-n2cc([C@]3(O)CCN(C)C3=O)nn2)c1 [Example 138, (R)-3-Hydroxy-3-(1-(4-(methoxymethyl)-6-(2-((1-methyl-1H-pyrazol-4-yl)amino)pyrimidin-4-yl)pyridin-2-yl)-1H-1,2,3-triazol-4-yl)-1-methylpyrrolidin-2-one] yielded an IC50 of 50 to 500 nM.

CN1CC[C@@](O)(c2cc(-c3cccc(-c4ccnc(NCc5cnn(C)c5)n4)n3)no2)C1=O [Example 368, (R)-3-Hydroxy-1-methyl-3-(3-(6-(2-(((1-methyl-1H-pyrazol-4-yl)methyl)amino)pyrimidin-4-yl)pyridin-2-yl)isoxazol-5-yl)pyrrolidin-2-one] was tested, and the IC50 was 50 to 500 nM.

CN1CC[C@@](O)(c2cc(-c3cccc(-c4ccnc(NC5CCC5)n4)n3)no2)C1=O [Example 453, (R)-3-(3-(6-(2-(Cyclobutylamino)pyrimidin-4-yl)pyridin-2-yl)isoxazol-5-yl)-3-hydroxy-1-methylpyrrolidin-2-one] was tested, and the IC50 was 50 to 500 nM.

With CN1CC[C@@](O)(c2cc(-c3cccc(-c4ccnc(NCCC(F)(F)F)n4)c3)no2)C1=O [Example 71, (R)-3-Hydroxy-1-methyl-3-(3-(3-(2-((3,3,3-trifluoropropyl)amino)pyrimidin-4-yl)phenyl)isoxazol-5-yl)pyrrolidin-2-one] the IC50 was > 500 nM.

CN1CC[C@@](O)(c2cc(-c3cccc(-c4ccnc(Nc5cn(C)nc5OCCO)n4)n3)no2)C1=O [Example 232, (R)-3-Hydroxy-3-(3-(6-(2-((3-(2-hydroxyethoxy)-1-methyl-1H-pyrazol-4-yl)amino)pyrimidin-4-yl)pyridin-2-yl)isoxazol-5-yl)-1-methylpyrrolidin-2-one] was tested, and the IC50 was 50 to 500 nM.

CN1CC[C@@](O)(c2cc(-c3cccc(-c4ccnc(Nc5cnn(C)c5Cl)n4)n3)on2)C1=O [Example 407, (R)-3-(5-(6-(2-((5-Chloro-1-methyl-1H-pyrazol-4-yl)amino)pyrimidin-4-yl)pyridin-2-yl)isoxazol-3-yl)-3-hydroxy-1-methylpyrrolidin-2-one] was tested, and the IC50 was < 50 nM.
